Laboratory results taken from ChEMBL document CHEMBL5042489, “Inhibitors of the Hippo Pathway Kinases STK3/MST2 and STK4/MST1 Have Utility for the Treatment of Acute Myeloid Leukemia” (J Med Chem, 2022).
Activity calls are given as the source filed them. The calls are words filed in the database; no cut-off is given here.

Tests used:
[1] = Drug concentration in C57BL/6 mouse liver at 10 mg/kg, ip administered for 1 hr; format: ADME, organism-based; settings: read-out: Ct
[2] = Cmax in C57BL/6 mouse at 10 mg/kg, ip measured upto 24 hrs by LC-MS/MS analysis; format: ADME, organism-based; set-up: route intraperitoneal, dose 10 mg/kg, time <=24; settings: in vivo
[3] = Drug concentration in C57BL/6 mouse liver at 10 mg/kg, ip administered for 2 hrs; format: ADME, organism-based; settings: read-out: Ct
[4] = AUC (0 to t) in C57BL/6 mouse at 10 mg/kg, ip measured upto 24 hrs by LC-MS/MS analysis; format: ADME, organism-based; set-up: dose 10 mg/kg, time <=24; settings: in vivo
[5] = Drug concentration in C57BL/6 mouse plasma at 20 mg/kg, ip measured after 30 mins by LC-MS/MS analysis; format: ADME, organism-based
[6] = Tmax in C57BL/6 mouse at 10 mg/kg, ip measured upto 24 hrs by LC-MS/MS analysis; format: ADME, organism-based; settings: in vivo
[7] = molecular target: T1, Serine/threonine-protein kinase 4 (Homo sapiens) (UniProt Q13043); settings: dose 20.0 µM
T1 sequence (whole entry): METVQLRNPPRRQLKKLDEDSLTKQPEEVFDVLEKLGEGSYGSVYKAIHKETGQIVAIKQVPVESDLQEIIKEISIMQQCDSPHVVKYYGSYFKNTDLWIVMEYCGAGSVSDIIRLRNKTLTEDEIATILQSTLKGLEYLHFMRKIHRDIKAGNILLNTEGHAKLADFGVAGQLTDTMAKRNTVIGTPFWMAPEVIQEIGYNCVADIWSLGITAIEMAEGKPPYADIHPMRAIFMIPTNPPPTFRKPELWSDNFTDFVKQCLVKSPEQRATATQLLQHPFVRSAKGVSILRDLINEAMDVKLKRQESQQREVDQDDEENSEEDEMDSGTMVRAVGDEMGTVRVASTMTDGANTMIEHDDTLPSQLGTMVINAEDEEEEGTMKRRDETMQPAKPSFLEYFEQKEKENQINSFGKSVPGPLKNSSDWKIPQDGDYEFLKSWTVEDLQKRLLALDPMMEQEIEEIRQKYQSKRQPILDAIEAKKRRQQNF
Description: Inhibition of recombinant N-terminal His6-tagged human STK4 (43 to 431 residues) expressed in Escherichia coli assessed as melting temperature at 20 uM by thermal shift assay (Rvb = 55 degreeC)

[8] = molecular target: T2, Serine/threonine-protein kinase 3 (Homo sapiens, UniProt Q13188)
T2 sequence (Q13188 whole entry): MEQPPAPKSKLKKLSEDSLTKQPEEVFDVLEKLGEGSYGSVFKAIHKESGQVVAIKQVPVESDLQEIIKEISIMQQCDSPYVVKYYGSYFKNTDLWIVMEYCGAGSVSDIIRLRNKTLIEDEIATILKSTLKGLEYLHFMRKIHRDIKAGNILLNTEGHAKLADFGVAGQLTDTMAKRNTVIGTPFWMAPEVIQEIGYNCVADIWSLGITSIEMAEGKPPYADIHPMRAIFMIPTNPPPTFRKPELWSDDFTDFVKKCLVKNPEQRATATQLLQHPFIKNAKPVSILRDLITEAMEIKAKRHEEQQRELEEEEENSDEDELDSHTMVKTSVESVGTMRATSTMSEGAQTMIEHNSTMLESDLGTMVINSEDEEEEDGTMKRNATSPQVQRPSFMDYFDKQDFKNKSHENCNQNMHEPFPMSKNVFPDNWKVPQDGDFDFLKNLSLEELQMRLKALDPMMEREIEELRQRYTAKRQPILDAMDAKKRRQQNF
Description: Displacement of K5 tracer from full length C-terminal NanoLuc fused human STK3 expressed in HEK293T cells incubated for 2 hrs by NanoBRET assay

Mus musculus = test: In vivo inhibition of STK3/4 in C57BL/6 mouse assessed as decrease in Thr35phosphorylated-MOB1 protein level in liver at 10 mg/kg, ip administered for 1 hr by Western blotting analysis; format: functional, organism-based
[9] = molecular target: T3, Serine/threonine-protein kinase 3 (Homo sapiens) (UniProt Q13188); test: Inhibition of STK3 in HEK293 cells assessed as increase in YAP/TAZ-TEAD activity at 10 uM incubated for 48 hrs by Dual-Glo luciferase assay; format: cell-based
T3 sequence (whole entry): T2 sequence (Q13188 whole entry)

[10] = Drug concentration in C57BL/6 mouse liver at 10 mg/kg, ip administered for 3 hrs; format: ADME, organism-based; settings: read-out: Ct
[11] = Half life in C57BL/6 mouse at 10 mg/kg, ip measured upto 24 hrs by LC-MS/MS analysis; format: ADME, organism-based; settings: in vivo
[12] = molecular target: T2, Serine/threonine-protein kinase 3; remark: listed apart in the source
[13] = molecular target: Leucine-rich repeat serine/threonine-protein kinase 2 (Homo sapiens, UniProt Q5S007); test: Displacement of K5 tracer from full length C-terminal NanoLuc fused human LRRK2 expressed in HEK293T cells incubated for 2 hrs by NanoBRET assay; format: cell-based
[14] = molecular target: T4, Serine/threonine-protein kinase 4 (Homo sapiens, UniProt Q13043)
T4 sequence (Q13043 whole entry): T1 sequence (whole entry)

[15] = Kinetic solubility of compound in PBS at pH 7.4; format: physicochemical; settings: buffer
OCI-AML-3 = test: Antiproliferation activity against human OCI-AML-3 cells incubated for 72 hrs by celltiter-glo assay; format: functional, cell-based
SKNO-1 = test: Antiproliferation activity against human SKNO-1 cells incubated for 72 hrs by celltiter-glo assay; format: functional, cell-based
[16] = molecular target: T3, Serine/threonine-protein kinase 3 (Homo sapiens); test: Inhibition of recombinant N-terminal His6-tagged human STK3 (18 to 311 residues) expressed in Escherichia coli assessed as melting temperature at 20 uM by thermal shift assay
[17] = molecular target: T4, Serine/threonine-protein kinase 4; remark: listed apart in the source
Description: Displacement of K5 tracer from full length C-terminal NanoLuc fused human STK4 expressed in HEK293T cells incubated for 2 hrs by NanoBRET assay

[18] = molecular target: Protein kinase C theta type (Homo sapiens) (UniProt Q04759); test: Inhibition of wild type partial length human PRKCQ (L350 to S706 residues) expressed in bacterial expression system by KdELECT assay
[19] = molecular target: BMP-2-inducible protein kinase (Homo sapiens) (UniProt Q9NSY1); test: Inhibition of BMP2K (unknown origin) by NanoBRET intracellular kinase assay; format: cell-based; settings: time 2.0 hrs
[20] = molecular target: T5, Serine/threonine-protein kinase STK11 (Homo sapiens) (UniProt Q15831); test: Inhibition of LKB1 (unknown origin) by NanoBRET intracellular kinase assay; format: cell-based; settings: time 2.0 hrs
T5 sequence (whole entry): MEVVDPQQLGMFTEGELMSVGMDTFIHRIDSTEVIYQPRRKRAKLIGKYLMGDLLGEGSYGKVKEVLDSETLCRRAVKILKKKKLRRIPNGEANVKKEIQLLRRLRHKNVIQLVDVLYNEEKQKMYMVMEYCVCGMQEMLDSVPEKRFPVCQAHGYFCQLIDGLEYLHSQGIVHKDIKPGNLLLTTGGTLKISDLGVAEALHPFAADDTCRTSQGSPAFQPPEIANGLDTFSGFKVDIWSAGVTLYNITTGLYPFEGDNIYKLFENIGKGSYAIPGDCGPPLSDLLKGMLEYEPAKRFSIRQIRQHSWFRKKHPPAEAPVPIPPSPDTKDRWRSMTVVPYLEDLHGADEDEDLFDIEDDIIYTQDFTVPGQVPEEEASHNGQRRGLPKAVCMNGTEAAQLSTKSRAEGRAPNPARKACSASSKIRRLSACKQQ

[21] = molecular target: T6, Serine/threonine-protein kinase RIO3 (Homo sapiens) (UniProt O14730); test: Inhibition of wild type full length human RIOK3 (M1 to E519 residues) expressed in bacterial expression system by KdELECT assay
T6 sequence (whole entry): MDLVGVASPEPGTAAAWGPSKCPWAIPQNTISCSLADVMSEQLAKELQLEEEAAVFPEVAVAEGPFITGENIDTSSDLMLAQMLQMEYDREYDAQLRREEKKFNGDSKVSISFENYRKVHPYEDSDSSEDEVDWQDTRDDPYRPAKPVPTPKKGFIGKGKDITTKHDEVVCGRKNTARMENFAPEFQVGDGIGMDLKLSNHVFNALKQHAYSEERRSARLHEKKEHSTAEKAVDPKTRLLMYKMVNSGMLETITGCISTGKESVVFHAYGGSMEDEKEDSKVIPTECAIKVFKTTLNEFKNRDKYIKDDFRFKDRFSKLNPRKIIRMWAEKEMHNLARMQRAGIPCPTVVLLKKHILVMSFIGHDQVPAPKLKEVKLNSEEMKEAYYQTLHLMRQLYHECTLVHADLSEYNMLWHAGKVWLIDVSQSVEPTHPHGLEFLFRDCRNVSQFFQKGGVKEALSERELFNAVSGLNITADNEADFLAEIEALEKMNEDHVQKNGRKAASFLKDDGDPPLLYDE

MOLM-13 [22] = test: Antiproliferation activity against human MOLM-13 cells incubated for 72 hrs by celltiter-glo assay; format: functional, cell-based
MOLM-13 [23] = test: Inhibition of MOB1 phosphorylation in human MOLM-13 cells assessed as decrease in pMOB1 activity at 1 uM preincubated for 4 hrs followed by H2O2 addition for 2 hrs by Western blotting analysis; format: cell-based; settings: time 6.0 hrs
Kasumi 1 = test: Antiproliferation activity against human Kasumi 1 cells incubated for 72 hrs by celltiter-glo assay; format: functional, cell-based
THP-1 = test: Antiproliferation activity against human THP-1 cells incubated for 72 hrs by celltiter-glo assay; format: functional, cell-based
MV4-11 = test: Antiproliferation activity against human MV4-11 cells incubated for 72 hrs by celltiter-glo assay; format: functional, cell-based
[24] = Permeability in human Caco-2 cells; format: ADME, cell-based
[25] = molecular target: T3, Serine/threonine-protein kinase 3 (Homo sapiens); test: Inhibition of STK3 (unknown origin) by KdELECT assay
[26] = Inhibition of MOB1 phosphorylation in human MOLM-13 cells assessed as decrease in pMOB1 activity preincubated for 4 hrs followed by H2O2 addition for 2 hrs by Western blotting analysis; format: cell-based

Sequence of Leucine-rich repeat serine/threonine-protein kinase 2 (Q5S007 whole entry, the tested form may be a part): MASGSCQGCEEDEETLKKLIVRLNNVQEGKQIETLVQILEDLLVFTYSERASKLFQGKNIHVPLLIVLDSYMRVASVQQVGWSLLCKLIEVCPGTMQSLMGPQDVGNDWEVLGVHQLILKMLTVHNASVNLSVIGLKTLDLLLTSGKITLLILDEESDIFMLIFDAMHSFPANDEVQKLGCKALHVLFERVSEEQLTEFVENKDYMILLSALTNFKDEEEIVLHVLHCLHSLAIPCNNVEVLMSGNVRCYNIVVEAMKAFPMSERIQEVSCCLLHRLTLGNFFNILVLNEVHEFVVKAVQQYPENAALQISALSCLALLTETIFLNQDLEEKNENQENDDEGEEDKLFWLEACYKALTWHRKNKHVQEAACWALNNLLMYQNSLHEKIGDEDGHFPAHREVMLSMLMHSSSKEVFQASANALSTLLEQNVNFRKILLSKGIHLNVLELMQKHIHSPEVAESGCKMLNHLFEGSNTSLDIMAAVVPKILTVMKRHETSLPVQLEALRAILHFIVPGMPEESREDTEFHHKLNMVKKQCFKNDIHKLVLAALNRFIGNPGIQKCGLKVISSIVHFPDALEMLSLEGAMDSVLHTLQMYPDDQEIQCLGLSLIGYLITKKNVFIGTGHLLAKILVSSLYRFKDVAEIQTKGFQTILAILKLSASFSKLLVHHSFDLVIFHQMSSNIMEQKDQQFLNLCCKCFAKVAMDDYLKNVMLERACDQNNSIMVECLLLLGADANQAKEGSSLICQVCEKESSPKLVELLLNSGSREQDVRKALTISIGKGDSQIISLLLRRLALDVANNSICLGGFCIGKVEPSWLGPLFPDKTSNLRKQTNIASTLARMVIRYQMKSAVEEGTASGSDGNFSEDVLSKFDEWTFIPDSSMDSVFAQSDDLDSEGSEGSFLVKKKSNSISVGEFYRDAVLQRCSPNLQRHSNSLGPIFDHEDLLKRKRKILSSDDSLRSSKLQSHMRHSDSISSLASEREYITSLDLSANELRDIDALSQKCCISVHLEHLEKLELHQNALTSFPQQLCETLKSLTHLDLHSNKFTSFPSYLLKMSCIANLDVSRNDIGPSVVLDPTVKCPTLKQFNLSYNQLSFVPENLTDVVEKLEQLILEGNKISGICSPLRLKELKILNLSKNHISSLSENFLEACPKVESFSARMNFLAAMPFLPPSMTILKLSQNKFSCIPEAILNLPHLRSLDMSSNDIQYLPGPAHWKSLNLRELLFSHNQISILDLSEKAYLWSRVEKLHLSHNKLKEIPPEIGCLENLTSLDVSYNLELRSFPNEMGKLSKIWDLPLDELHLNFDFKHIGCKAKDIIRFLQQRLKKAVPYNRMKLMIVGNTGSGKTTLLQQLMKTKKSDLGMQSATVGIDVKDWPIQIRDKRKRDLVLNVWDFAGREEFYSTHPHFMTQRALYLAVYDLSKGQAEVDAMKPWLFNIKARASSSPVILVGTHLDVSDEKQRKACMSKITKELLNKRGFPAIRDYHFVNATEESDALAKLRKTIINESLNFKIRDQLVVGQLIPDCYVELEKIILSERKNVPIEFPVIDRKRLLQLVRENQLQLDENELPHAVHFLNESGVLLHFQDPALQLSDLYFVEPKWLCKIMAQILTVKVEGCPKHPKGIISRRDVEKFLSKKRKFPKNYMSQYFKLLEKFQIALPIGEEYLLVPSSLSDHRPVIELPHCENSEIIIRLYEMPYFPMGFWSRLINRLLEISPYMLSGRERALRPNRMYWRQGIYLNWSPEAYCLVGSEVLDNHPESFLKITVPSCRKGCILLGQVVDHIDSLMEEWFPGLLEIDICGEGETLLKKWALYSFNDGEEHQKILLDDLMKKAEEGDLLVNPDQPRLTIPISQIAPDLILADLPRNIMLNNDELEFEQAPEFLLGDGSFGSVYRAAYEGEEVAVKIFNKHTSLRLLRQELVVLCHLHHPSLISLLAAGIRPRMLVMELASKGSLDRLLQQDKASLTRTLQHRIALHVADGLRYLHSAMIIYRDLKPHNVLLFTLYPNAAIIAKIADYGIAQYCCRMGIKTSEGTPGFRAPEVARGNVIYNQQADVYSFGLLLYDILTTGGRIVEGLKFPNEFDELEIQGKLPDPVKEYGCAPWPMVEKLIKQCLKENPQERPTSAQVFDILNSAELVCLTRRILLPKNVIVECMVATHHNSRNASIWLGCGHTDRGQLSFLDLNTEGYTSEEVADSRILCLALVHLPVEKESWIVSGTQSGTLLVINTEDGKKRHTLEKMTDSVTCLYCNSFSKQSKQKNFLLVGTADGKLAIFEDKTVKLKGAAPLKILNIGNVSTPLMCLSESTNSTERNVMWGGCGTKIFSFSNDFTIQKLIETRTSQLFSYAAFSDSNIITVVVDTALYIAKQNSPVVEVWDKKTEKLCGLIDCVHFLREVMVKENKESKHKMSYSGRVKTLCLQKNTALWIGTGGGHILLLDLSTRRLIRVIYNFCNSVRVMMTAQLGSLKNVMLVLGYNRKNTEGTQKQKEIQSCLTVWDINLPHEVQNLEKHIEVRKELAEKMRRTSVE
Sequence of BMP-2-inducible protein kinase (Homo sapiens) (Q9NSY1 whole entry, looked up): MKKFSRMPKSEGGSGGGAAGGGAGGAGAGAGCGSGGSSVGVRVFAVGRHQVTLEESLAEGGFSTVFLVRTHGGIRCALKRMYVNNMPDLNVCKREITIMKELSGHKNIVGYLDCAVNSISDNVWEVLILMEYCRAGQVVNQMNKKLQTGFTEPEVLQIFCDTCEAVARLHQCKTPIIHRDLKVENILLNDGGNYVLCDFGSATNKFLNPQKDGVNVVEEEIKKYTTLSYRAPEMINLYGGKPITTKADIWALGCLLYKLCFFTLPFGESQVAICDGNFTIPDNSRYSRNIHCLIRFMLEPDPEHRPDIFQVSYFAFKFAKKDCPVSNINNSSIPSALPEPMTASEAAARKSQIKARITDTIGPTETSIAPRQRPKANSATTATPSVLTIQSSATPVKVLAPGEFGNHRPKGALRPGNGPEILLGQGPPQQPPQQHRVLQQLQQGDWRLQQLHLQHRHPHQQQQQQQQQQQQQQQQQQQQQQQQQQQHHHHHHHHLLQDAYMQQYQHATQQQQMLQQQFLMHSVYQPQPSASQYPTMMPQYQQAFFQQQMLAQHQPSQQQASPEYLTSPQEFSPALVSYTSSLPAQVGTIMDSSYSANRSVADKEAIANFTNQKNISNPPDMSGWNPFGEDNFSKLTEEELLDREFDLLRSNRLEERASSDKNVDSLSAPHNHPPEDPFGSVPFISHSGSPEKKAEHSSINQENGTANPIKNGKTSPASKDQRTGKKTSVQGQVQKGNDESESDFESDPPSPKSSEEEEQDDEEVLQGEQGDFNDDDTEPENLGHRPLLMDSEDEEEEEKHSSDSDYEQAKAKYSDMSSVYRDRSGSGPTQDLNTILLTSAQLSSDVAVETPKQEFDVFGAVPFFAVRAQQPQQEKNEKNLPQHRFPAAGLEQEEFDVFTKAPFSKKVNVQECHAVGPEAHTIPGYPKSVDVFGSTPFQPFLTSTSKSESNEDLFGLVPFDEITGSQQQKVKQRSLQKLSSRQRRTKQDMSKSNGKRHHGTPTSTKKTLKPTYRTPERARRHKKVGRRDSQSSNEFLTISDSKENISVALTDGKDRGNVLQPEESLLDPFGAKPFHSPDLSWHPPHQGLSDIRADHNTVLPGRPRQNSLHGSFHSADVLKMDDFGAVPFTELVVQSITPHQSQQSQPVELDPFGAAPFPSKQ
Sequence of Protein kinase C theta type (Homo sapiens) (Q04759 whole entry, looked up, the tested form may be a part): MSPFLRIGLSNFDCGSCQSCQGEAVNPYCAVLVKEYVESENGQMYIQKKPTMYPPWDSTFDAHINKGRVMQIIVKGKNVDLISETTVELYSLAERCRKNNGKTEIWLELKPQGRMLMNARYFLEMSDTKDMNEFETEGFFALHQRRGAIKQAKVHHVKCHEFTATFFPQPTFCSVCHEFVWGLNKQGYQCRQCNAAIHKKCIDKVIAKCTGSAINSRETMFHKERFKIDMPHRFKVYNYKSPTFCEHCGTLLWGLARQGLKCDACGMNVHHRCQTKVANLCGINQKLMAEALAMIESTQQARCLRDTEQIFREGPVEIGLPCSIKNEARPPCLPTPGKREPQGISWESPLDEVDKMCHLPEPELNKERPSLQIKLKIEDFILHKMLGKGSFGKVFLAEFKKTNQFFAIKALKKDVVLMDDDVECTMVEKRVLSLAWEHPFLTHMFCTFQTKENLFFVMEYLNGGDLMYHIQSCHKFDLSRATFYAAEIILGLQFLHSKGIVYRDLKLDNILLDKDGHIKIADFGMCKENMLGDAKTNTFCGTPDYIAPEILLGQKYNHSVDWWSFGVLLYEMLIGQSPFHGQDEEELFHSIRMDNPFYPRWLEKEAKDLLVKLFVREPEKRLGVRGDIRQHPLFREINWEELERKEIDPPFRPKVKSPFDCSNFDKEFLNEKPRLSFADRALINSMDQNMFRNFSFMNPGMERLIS

Compound | Cmax [2] [µM] | AUCt [4] [µM·h] | concentration at 0.5 h [5] [µM] | Tmax [6] [min] | IC50 [8] [nM] | inhibition (Mus musculus) | inhibition [9] | t1/2 [11] [min] | IC50 [12] [nM] | IC50 [13] [nM] | IC50 [14] [nM] | Activity (OCI-AML-3) | Activity (SKNO-1) | IC50 [17] [nM] | inhibition [18] | inhibition [19] | inhibition [20] | inhibition [21] | Activity (Kasumi 1) | Activity (THP-1) | also measured
NC(=O)c1cccc(-c2c[nH]c3ncnc(N4CCOCC4)c23)c1 | 11.9 | 9.5 | 15.9 | 30 | 303 | Active | Active | 42 | 233 | 2360 |  |  |  |  |  |  |  |  |  |  | concentration at 1 h [1]: 28 µM; concentration at 2 h [3]: 2.5 µM; Tm [7]: 63.3 °C; concentration at 3 h [10]: 1.2 µM
OC1CCN(c2ncnc3[nH]cc(-c4cccc(Cl)c4)c23)CC1 | 5.8 | 4.3 | 11.6 | 15 | 433 | Active | Active | 594 | 127 | 1340 | 80 | Dose-Dependent Effect | Dose-Dependent Effect | 250 | Active | inactive | inactive | Active | Dose-Dependent Effect | Dose-Dependent Effect | Kinetic_solubility [15]: 189 µM; ΔTm [16]: > 5.2 °C; Activity (MOLM-13 [22]): Dose-Dependent Effect; inhibition (MOLM-13 [23]): Active; Activity (MV4-11): Dose-Dependent Effect; permeability [24]: Permeable; inhibition [25]: Active
CC(=O)NC1CCN(c2ncnc3[nH]cc(-c4cccc(Cl)c4)c23)CC1 | 11.8 | 8.1 |  | 15 | 139 | Active |  | 318 | 36 | 1390 | 26 | Dose-Dependent Effect | Dose-Dependent Effect | 122 | Active | inactive | inactive | Active | Dose-Dependent Effect | Dose-Dependent Effect | IC50 [26]: 413 nM; IC50 (MOLM-13 [22]; MOLM-13, 72 h): 5800 nM; IC50 (MV4-11; MV4-11, 72 h): 3700 nM; inhibition [25]: Active
